For three compounds, IC50 results are on record in patent US20240400518A1, “SOS1 INHIBITOR AND USE THEREOF” (KANAPH THERAPEUTICS INC., priority 2021, published 2024).

The target of one test is T1, SOS1 (Homo sapiens, UniProt Q07889).
T1 construct: adding equal amounts of HIS—SOS1cat (160 nM; Cytoskeleton, US); His (N); purchased Cytoskeleton, US
T1 sequence (Q07889 564-1049 limits assumed): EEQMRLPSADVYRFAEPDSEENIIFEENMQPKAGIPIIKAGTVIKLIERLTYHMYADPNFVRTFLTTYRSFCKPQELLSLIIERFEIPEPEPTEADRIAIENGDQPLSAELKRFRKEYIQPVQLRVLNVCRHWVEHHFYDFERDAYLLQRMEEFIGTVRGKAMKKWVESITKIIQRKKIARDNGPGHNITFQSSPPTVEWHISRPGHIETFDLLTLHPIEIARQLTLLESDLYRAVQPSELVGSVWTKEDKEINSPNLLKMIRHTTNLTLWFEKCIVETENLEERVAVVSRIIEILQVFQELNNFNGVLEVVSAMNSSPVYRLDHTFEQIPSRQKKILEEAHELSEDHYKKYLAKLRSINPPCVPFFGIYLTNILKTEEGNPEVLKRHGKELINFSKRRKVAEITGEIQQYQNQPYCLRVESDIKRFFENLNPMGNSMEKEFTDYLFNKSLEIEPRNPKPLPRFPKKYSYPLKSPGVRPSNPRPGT
Description: SOS-catalyzed nucleotide exchange assay (HTRF, SOS1-mediated GTP loading of KRAS G12D). Type of test: biochemical. Conditions: GST-KRAS G12D, HIS-SOS1cat, IC50 class. As to the method: SOS1 activity was measured by SOS1-mediated GTP loading quantification of KRAS^G12D. GTP loaded KRAS^G12D was detected by HTRF (Homogeneous Time Resolved Fluorescence) using anti-GST terbium (Cisbio, France) as a donor and a fluorescence GTP analogue (EDA-GTP-DY-647P1, [DY-647P1 labeled 2′/3′-O-(2-aminoethyl-carbamoyl)guanosine-5′-triphosphate (Jena bioscience, Germany)]) as an acceptor.
Assay buffer was composed of 10 mM HEPES pH 7.4, 150 mM NaCl, 5 mM MgCl2, 1 mM DTT, 0.05% BSA Fraction V pH 7.0 (Sigma) and 0.0025% (v/v) Igepal (Sigma). KRAS^G12D working solution was prepared by adding equal amounts of GST-KRAS^G12D (100 nM) and anti-GST-terbium (2 nM; Cisbio, France) to the assay buffer and culturing on ice for 10 minutes. SOS1cat working solution was prepared by adding equal amounts of HIS—SOS1cat (160 nM; Cytoskeleton, US) and EDA-GTP-DY-647P1 (200 nM; Jena bioscience, Germany) to the assay buffer. Control solution was prepared by adding equal volumes of EDA-GTP-DY-647P1 and the assay buffer for normalization control to exclude GEF-independent GTP loading and background signals. In order to induce a reaction, 5 μL of the SOS1cat working solution or the control solution was injected into each well. 5 μL of a compound having various concentrations from 128 pM to 10 μM was added to wells containing the SOS1cat working solution and incubated at room temperature for 10 minutes to bind to SOS1.
10 μL of the KRAS^G12D solution was added to each well and incubated for 30 minutes at room temperature while shaking. HTRF was measured using a Thermo Varioskan (excitation 334 nm, emission 665 nm). The IC50 of each inhibitor was analyzed using Graphad Prism.
In general terms: In TR-FRET formats the signal depends on donor and acceptor labels being close together.

The next test addresses T2, KRAS^G12C::SOS1 (Homo sapiens, UniProt Q07889).
T2 construct: purchased CISBIO, FRANCE 64KRASG12PEH
T2 sequence (Q07889 1-1333): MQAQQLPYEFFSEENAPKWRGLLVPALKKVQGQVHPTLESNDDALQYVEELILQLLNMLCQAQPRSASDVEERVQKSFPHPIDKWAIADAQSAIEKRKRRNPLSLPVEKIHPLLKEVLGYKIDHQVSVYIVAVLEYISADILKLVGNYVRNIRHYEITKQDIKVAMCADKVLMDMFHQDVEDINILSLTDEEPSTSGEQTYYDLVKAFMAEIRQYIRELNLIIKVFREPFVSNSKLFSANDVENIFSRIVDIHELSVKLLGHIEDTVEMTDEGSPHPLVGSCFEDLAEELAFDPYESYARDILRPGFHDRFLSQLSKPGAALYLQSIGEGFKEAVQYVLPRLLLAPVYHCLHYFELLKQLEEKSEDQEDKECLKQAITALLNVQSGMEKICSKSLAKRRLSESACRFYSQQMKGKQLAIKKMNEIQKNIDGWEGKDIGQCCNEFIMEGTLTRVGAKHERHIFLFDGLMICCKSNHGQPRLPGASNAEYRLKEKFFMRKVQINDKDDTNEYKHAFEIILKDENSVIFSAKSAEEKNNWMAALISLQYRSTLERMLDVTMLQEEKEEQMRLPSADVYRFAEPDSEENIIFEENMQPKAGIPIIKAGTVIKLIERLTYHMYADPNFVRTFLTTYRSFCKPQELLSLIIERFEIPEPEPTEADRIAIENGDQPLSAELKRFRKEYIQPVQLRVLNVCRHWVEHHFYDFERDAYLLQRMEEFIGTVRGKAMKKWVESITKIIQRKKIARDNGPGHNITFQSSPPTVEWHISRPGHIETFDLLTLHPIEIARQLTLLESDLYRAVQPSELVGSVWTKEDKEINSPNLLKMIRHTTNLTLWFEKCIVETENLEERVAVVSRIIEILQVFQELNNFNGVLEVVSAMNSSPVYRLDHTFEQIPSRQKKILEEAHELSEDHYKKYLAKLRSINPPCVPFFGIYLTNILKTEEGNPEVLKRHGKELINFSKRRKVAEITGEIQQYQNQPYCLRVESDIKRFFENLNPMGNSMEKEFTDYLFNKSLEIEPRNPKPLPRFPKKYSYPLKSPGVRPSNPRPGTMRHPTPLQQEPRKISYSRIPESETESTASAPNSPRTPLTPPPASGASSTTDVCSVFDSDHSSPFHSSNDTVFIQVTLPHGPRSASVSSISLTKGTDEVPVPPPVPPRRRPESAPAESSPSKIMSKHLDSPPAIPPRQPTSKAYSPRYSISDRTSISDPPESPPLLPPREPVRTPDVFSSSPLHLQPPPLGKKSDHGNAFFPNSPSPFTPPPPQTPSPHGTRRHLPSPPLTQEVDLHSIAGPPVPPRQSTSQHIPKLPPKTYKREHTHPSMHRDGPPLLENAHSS
Kind of test: KRAS G12C::SOS1 protein-protein interaction (PPI) inhibition assay (HTRF binding kit). The conditions noted are these: max inhibitor concentration 3 μM, three replicates, IC50 class. The protocol: Protein-protein interaction between SOS1 and KRAS^G12C was detected using KRAS G12C/SOS1 binding kit from CISBIO (64KRASG12PEH, CISBIO, FRANCE) according to the manufacturer's assay method. Briefly, the maximum concentration of an inhibitor sample was set to be 3 μM, and the inhibitor sample was diluted 7 times by 1/3, and samples having a total of 8 concentrations were prepared. In HTRF (Homogeneous Time-Resolved Fluorescence) exclusive 96-well low-volume white plate (66PL96005, CISBIO, FRANCE), 2 μL of an inhibitor sample prepared for each concentration, 5 μL of a mixed solution of Tag1 labeled KRAS^G12C protein and GTP diluted with the dilution solution provided by the manufacturer, and 5 μL of Tag2 labeled SOS1 protein were mixed, and added with 8 μL of a diluted solution where anti-Tag1 KRAS^G12CXL665 (HTRF acceptor) labeled antibody and anti-Tag2 SOS1 Terbium cryptate (HTRF donor) labeled antibody were mixed in an equal ratio and cultured at room temperature for 2 hours.

For the compound `C[C@@H](NC(=O)c1ccc(=O)n(-c2cccc(-c3ccnn3C)c2)c1)c1cccc(C(F)(F)CO)c1F` [Example 78, N-[(1R)-1-[3-(1,1-difluoro-2-hydroxyethyl)-2-fluorophenyl]ethyl]-1-[3-(1-methyl-1H-pyrazol-5-yl)phenyl]-6-oxo-1,6-dihydropyridine-3-carboxamide], the IC50 on SOS1 was under 1000 nM.
As to `CC(=O)N1CCC(n2nc(C(=O)N[C@H](C)c3cc(N)cc(C(F)(F)F)c3)ccc2=O)CC1` [Example 118, 1-(1-acetylpiperidin-4-yl)-N-[(1R)-1-[3-amino-5-(trifluoromethyl)phenyl]ethyl]-6-oxo-1,6-dihydropyridazine-3-carboxamide], the IC50 against SOS1 is 1000 to 10000 nM.
In the case of `C[C@@H](NC(=O)c1ccc(=O)n(-c2ccc(OC(F)(F)F)cc2)n1)c1cc(N)cc(C(F)(F)F)c1` [Example 154], the IC50 at KRAS^G12C::SOS1 is under 1000 nM; against SOS1, 1000 to 10000 nM.

A word on the IC50: it is the concentration at which inhibition is half-maximal.
